Square brackets hold non-standard residues; d marks the D form. Peptide text beside a SMILES is read from it. Aun = NCCCCCCCCCCC(=O)O; Aoc = NCCCCCCCC(=O)O A value given as a limit tells only on which side of the number the result lay.

In one test the target is T1, PvNMT (Plasmodium vivax, UniProt A5K1A2).
T1 sequence (A5K1A2 1-410): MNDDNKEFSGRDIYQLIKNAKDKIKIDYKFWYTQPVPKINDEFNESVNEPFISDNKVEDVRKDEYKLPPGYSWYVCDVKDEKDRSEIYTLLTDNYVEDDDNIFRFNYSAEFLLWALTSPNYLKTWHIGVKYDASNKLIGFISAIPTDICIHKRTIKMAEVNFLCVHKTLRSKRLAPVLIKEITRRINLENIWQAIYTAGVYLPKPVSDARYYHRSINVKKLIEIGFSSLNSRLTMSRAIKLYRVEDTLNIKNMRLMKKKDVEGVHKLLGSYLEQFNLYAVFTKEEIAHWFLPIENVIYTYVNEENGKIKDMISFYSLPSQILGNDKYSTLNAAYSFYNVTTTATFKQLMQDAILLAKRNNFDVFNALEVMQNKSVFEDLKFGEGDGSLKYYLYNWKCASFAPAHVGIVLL
Nature of the test: Fluorogenic NMT inhibition assay, PvNMT. Type of test: biochemical. The following applies: recombinant enzyme; mean of duplicate or triplicate experiments. The text has this:
(§1) 2-Methylimidazolyl analogues were synthesized building on the hypothesis that 2-methylimidazole (pK a ∼ 7.9)[18] is a reasonable mimetic for N-terminal Gly in the peptide substrate (pK a ∼ 8.0).[19] To cover a range of basicity, imidazolyl (pK a ∼ 7.0) and amine analogues (pK a ∼ 10.0) were also synthesized, each exploring a range of chain lengths (n) (Table 1). To probe versatility at the C-terminus, primary amides, carboxylic acids, 2-cyclohexylethyl and 2-(1-cyclohexenyl)ethyl amides were incorporated. Using a previously reported fluorogenic assay,[20] inhibitors were tested against the parasitic enzymes and HsNMT1 in order to explore their selectivity against a relevant host enzyme. […] Further reduction of the chain length (11 and 12, n = 8 and 7, respectively) led to loss of detectable activity against Plasmodium NMTs and significant loss of activity against LdNMT and HsNMT1.

The target in another test is T2, PfNMT (Plasmodium falciparum, UniProt Q9U419).
T2 sequence (Q9U419 1-410): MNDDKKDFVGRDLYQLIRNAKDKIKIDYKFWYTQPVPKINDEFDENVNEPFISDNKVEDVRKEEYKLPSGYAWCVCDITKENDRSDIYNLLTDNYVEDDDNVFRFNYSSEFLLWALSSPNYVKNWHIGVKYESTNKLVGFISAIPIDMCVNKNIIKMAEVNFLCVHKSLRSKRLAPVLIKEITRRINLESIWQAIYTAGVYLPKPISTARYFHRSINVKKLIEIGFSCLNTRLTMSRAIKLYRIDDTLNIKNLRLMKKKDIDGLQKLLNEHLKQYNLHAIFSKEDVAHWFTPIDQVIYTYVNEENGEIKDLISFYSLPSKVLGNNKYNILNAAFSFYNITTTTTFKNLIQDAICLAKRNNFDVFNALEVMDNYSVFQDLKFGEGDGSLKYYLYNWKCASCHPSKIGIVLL
Nature of the test: Fluorogenic NMT inhibition assay, PfNMT. Type of test: biochemical. The conditions noted are these: recombinant enzyme; mean of duplicate or triplicate experiments.
Description: as §1

The next test relates to LdNMT. Put plainly: Fluorogenic NMT inhibition assay, LdNMT. The following applies: for IC50: recombinant enzyme, mean of duplicate or triplicate experiments. Type of test: biochemical, L. donovani.
Description: as §1

The next test addresses T3, HsNMT1 (Homo sapiens, UniProt P30419).
T3 sequence (P30419 1-496): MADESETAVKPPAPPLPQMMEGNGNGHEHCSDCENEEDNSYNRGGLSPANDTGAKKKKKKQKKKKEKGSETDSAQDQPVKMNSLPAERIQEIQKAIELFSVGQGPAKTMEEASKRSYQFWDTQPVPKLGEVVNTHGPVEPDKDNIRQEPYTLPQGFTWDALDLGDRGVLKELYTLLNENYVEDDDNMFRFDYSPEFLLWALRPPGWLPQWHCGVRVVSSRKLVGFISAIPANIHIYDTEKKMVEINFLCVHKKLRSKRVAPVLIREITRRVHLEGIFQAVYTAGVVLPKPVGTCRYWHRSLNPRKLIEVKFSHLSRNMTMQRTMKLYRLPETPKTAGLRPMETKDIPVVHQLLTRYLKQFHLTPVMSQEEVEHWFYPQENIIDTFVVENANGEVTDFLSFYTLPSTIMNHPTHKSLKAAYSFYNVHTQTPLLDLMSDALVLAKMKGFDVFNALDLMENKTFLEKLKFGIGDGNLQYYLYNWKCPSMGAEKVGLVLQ
Nature of the test: Fluorogenic NMT inhibition assay, HsNMT1. The conditions noted are these: for IC50: mean of duplicate or triplicate experiments. The test is classed as biochemical, H. sapiens. An excerpt:
2-Methylimidazolyl analogues were synthesized building on the hypothesis that 2-methylimidazole (pK a ∼ 7.9)[18] is a reasonable mimetic for N-terminal Gly in the peptide substrate (pK a ∼ 8.0).[19] To cover a range of basicity, imidazolyl (pK a ∼ 7.0) and amine analogues (pK a ∼ 10.0) were also synthesized, each exploring a range of chain lengths (n) (Table 1). To probe versatility at the C-terminus, primary amides, carboxylic acids, 2-cyclohexylethyl and 2-(1-cyclohexenyl)ethyl amides were incorporated. Using a previously reported fluorogenic assay,[20] inhibitors were tested against the parasitic enzymes and HsNMT1 in order to explore their selectivity against a relevant host enzyme.

Setting [1] is: hydroxyl substituted for the N-terminal amine.

The IC50 is the midpoint of a concentration-inhibition curve. On to `NCCCC[C@H](NC(=O)[C@H](CO)NC(=O)CCCCCCCCCCn1ccnc1)C(=O)NCCC1CCCCC1` [Compound 1], for which the half-maximal inhibitory concentration (IC50) on PvNMT was more than 100 µM; at PfNMT, more than 100 µM; in the test with LdNMT, 25.8 ± 8.2 µM; at HsNMT1, 47.6 ± 3.8 µM.
For the molecule `NCCCC[C@H](NC(=O)[C@H](CO)NC(=O)CCCCCCCCCn1ccnc1)C(=O)NCCC1CCCCC1` [Compound 2], the half-inhibitory concentration (IC50) on PvNMT was more than 100 µM; on PfNMT it was more than 100 µM; in the test with LdNMT it was 10.6 ± 1.6 µM; against HsNMT1 it was 44 ± 7.1 µM.
In the case of `NCCCC[C@H](NC(=O)[C@H](CO)NC(=O)CCCCCCCCn1ccnc1)C(=O)NCCC1CCCCC1` [Compound 3], the IC50 on PvNMT was more than 100 µM; on PfNMT, more than 100 µM; in the test on LdNMT it was 16.7 ± 2.5 µM; against HsNMT1, more than 100 µM.
In the case of `NCCCC[C@H](NC(=O)[C@H](CO)NC(=O)CCCCCCCn1ccnc1)C(=O)NCCC1CCCCC1` [Compound 4], the IC50 on PvNMT is more than 100 µM; at PfNMT it was more than 100 µM; in the test on LdNMT it was 34.8 ± 3.7 µM; against HsNMT1 it was more than 100 µM.
For the molecule `Cc1nccn1CCCCCCCCCCC(=O)N[C@@H](CO)C(=O)N[C@@H](CCCCN)C(=O)NCCC1CCCCC1` [Compound 5], the IC50 on PvNMT was more than 100 µM; on PfNMT, more than 100 µM; in the test on LdNMT, more than 100 µM; against HsNMT1, 21.8 ± 0.8 µM.
For `Cc1nccn1CCCCCCCCCC(=O)N[C@@H](CO)C(=O)N[C@@H](CCCCN)C(=O)NCCC1CCCCC1` [Compound 6], the IC50 on PvNMT was more than 100 µM; on PfNMT, more than 100 µM; in the test on LdNMT it was 0.63 ± 0.01 µM; against HsNMT1, 7.92 ± 0.83 µM.
Turning to `Cc1nccn1CCCCCCCCC(=O)N[C@@H](CO)C(=O)N[C@@H](CCCCN)C(=O)NCCC1CCCCC1` [Compound 7], the half-inhibitory concentration (IC50) at PvNMT was more than 100 µM; at PfNMT it was more than 100 µM; in the test with LdNMT, 3.42 ± 0.34 µM; on HsNMT1, 49.9 ± 10.6 µM.
On to `Cc1nccn1CCCCCCCC(=O)N[C@@H](CO)C(=O)N[C@@H](CCCCN)C(=O)NCCC1CCCCC1` [Compound 8], for which the concentration for half-maximal inhibition (IC50) at PvNMT was more than 100 µM; at PfNMT it was more than 100 µM; in the test on LdNMT it was 1.46 ± 0.22 µM; against HsNMT1, 82.2 ± 14 µM.
For `NCCCCCCCCCCC(=O)N[C@@H](CO)C(=O)N[C@@H](CCCCN)C(=O)NCCC1CCCCC1` [Compound 9], the IC50 was 1.04 ± 0.01 µM at PvNMT, more than 100 µM at PfNMT and 0.14 ± 0.01 µM in the test with LdNMT.
Regarding `NCCCCCCCCC(=O)N[C@@H](CO)C(=O)N[C@@H](CCCCN)C(=O)NCCC1CCCCC1` [Compound 11], the concentration for half-maximal inhibition (IC50) is more than 100 µM on PvNMT, more than 100 µM on PfNMT, 2.01 ± 0.3 µM in the test on LdNMT and 7.68 ± 0.86 µM against HsNMT1.
For `NCCCCCCCC(=O)N[C@@H](CO)C(=O)N[C@@H](CCCCN)C(=O)NCCC1CCCCC1` [Compound 12], the IC50 at PvNMT is more than 100 µM; at PfNMT, more than 100 µM; in the test with LdNMT, 1.39 ± 0.18 µM; at HsNMT1 it was 6.75 ± 0.45 µM.
On to `CC(=O)N[C@@H](CO)C(=O)N[C@@H](CCCCN)C(=O)NCCC1CCCCC1` [Compound 14], for which the concentration for half-maximal inhibition (IC50) on PvNMT, at PfNMT, in the test with LdNMT and against HsNMT1 was more than 100 µM each time.
For the molecule `NCCCCCCCCCCC(=O)N[C@@H](CO)C(=O)N[C@@H](CCCCN)C(=O)NCCC1=CCCCC1` [Compound 15], the half-inhibitory concentration (IC50) at PvNMT was 12.9 ± 1.07 µM; at PfNMT it was more than 100 µM; with LdNMT it was 6.6 ± 1.28 µM; on HsNMT1, 2.3 ± 0.14 µM.
For `NCCCCCCCCCC(=O)N[C@@H](CO)C(=O)N[C@@H](CCCCN)C(=O)NCCC1=CCCCC1` [Compound 16], the IC50 was 3.55 ± 0.38 µM on PvNMT, more than 100 µM at PfNMT, 0.44 ± 0.04 µM with LdNMT and 0.67 ± 0.04 µM at HsNMT1.
As to `NCCCC[C@H](NC(=O)[C@H](CO)NC(=O)CCCCCCCCCCn1ccnc1)C(=O)NCCC1=CCCCC1` [Compound 17], the IC50 at PvNMT, at PfNMT, in the test with LdNMT and against HsNMT1 was more than 100 µM throughout.
In the case of `NCCCC[C@H](NC(=O)[C@H](CO)NC(=O)CCCCCCCCCn1ccnc1)C(=O)NCCC1=CCCCC1` [Compound 18], the half-inhibitory concentration (IC50) at PvNMT, at PfNMT, with LdNMT and on HsNMT1 was more than 100 µM each time.
Take `Cc1nccn1CCCCCCCCCCC(=O)N[C@@H](CO)C(=O)N[C@@H](CCCCN)C(=O)NCCC1=CCCCC1` [Compound 19]: the IC50 on PvNMT, on PfNMT, with LdNMT and against HsNMT1 was more than 100 µM throughout.
As for `Cc1nccn1CCCCCCCCCC(=O)N[C@@H](CO)C(=O)N[C@@H](CCCCN)C(=O)NCCC1=CCCCC1` [Compound 20], the IC50 on PvNMT, on PfNMT and at HsNMT1 was more than 100 µM each time.
Take `NCCCCCCCCCCC(=O)N[C@@H](CO)C(=O)N[C@@H](CCCCN)C(N)=O` [Compound 21] (H-[Aun]-Ser-Lys-NH2): the IC50 at PvNMT was more than 100 µM; at PfNMT, more than 100 µM; in the test on LdNMT, 13.3 ± 2 µM; at HsNMT1, 5.4 ± 0.41 µM.
As to `NCCCCCCCCCC(=O)N[C@@H](CO)C(=O)N[C@@H](CCCCN)C(N)=O` [Compound 22], the concentration for half-maximal inhibition (IC50) at PvNMT was 22.9 ± 3.5 µM; on PfNMT it was more than 100 µM; with LdNMT, 1.36 ± 0.2 µM; against HsNMT1, 1.36 ± 0.29 µM.
For `NCCCCCCCCC(=O)N[C@@H](CO)C(=O)N[C@@H](CCCCN)C(N)=O` [Compound 23] the same measures were more than 100 µM, more than 100 µM, 27.1 ± 2.6 µM and 33.1 ± 2.5 µM.
For the molecule `NCCCCCCCC(=O)N[C@@H](CO)C(=O)N[C@@H](CCCCN)C(N)=O` [Compound 24] (H-[Aoc]-Ser-Lys-NH2), the IC50 is more than 100 µM on PvNMT, more than 100 µM at PfNMT, 61.9 ± 4.7 µM with LdNMT and more than 100 µM at HsNMT1.
Take `NCCCCCCCCCCC(=O)N[C@@H](CO)C(=O)N[C@@H](CCCCN)C(=O)O` [Compound 25] (H-[Aun]-Ser-Lys-OH): the IC50 is more than 100 µM on PvNMT, more than 100 µM on PfNMT, 86.7 ± 10.4 µM in the test on LdNMT and 39.2 ± 2 µM against HsNMT1.
For the molecule `NCCCCCCCCCC(=O)N[C@@H](CO)C(=O)N[C@@H](CCCCN)C(=O)O` [Compound 26], the half-maximal inhibitory concentration (IC50) on PvNMT is more than 100 µM; at PfNMT, more than 100 µM; in the test on LdNMT it was more than 100 µM; at HsNMT1, 92.1 ± 17.6 µM.
For `NCCCC[C@H](NC(=O)[C@H](CO)NC(=O)CCCCCCCCCO)C(=O)NCCC1CCCCC1` [Compound 46], in the test on LdNMT (setting [1]), the “loss in activity, Leishmania NMT” value is more than 100 folds. On HsNMT1 (setting [1]), the “loss in activity, Human NMT” value is 1000 folds.

Values taken from article PMC4224572, “Peptidomimetic inhibitors of N-myristoyltransferase from human malaria and leishmaniasis parasites” (Organic & Biomolecular Chemistry, 2014).
